Measurements from article PMC4746303, “Inactivation of Anopheles gambiae Glutathione Transferase ε2 by Epiphyllocoumarin” (Biochemistry Research International, 2016).

Assays:
[1] = biological target: T1, Glutathione transferase epsilon 2 (AgGSTε2) (Anopheles gambiae, UniProt Q9GPL8); assay: time-dependent inactivation of purified enzyme at […] (positive control), half-life […] min; assay type: biochemical
T1 construct: recombinant AgGSTε2 expressed from pET3a in E. coli BL21 (DE3) pLysS
T1 sequence (Q9GPL8 1-221): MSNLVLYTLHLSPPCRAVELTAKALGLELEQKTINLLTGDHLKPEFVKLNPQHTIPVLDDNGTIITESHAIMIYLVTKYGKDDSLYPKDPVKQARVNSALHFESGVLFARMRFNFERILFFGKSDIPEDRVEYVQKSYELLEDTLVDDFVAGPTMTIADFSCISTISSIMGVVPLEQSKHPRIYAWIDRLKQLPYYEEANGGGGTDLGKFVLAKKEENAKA

[2] = biological target: T1, Glutathione transferase epsilon 2 (AgGSTε2); assay: time- and concentration-dependent inactivation of purified enzyme, GST activity (CDNB/GSH) assay; KI […], kinact […] min^-1; assay type: biochemical

Compound | time-dependent inactivation of purified enzyme at 25 μM (positive control), half [1] [min] | KI (inactivation) [2] [µM]
C=C(CC)C(=O)c1ccc(OCC(=O)O)c(Cl)c1Cl [ETA, ethacrynic acid] | 22 | 
O=c1ccc2c3c(c(O)cc2o1)C[C@@H](O)[C@@H](c1ccc(O)c(O)c1)O3 [Tral 1, epiphyllocoumarin] |  | 7.5 ± 2.1
